Data from PubChem BioAssay AID1919014 (Molecular Pharmacology Branch, DTP, NCI, 2023).

Tested on: NCI-H1341 complex spheroids, percent test/control
Assay: Anticancer human tumor NCI-H1341 cell line growth inhibition [AhR];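 further: spheroids exposed to agents for seven days before readout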
Settings: for IC50: curve of first compound; for viability, T/C: stronger effect = lower value
Method in brief: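 Agents were dosed in half-log steps down from roughly clinical Cmax, or from 10 microM where Cmax was unknown, alone and with AhR antagonists. Read-out: percent test/control growth of tumor spheroids containing HUVEC and MSC stromal cells.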

[1] = second compound 0.1 µM, first compound 0.0316 µM
[2] = second compound 0.1 µM, first compound 0.1 µM
[3] = second compound 0.1 µM, first compound 0.316 µM
[4] = second compound 0.1 µM, first compound 1 µM
[5] = second compound 0.1 µM, first compound 3.16 µM
[6] = second compound 0.1 µM, first compound 10 µM
[7] = second compound 0.316 µM, first compound 0.0316 µM
[8] = second compound 0.316 µM, first compound 0.1 µM
[9] = second compound 0.316 µM, first compound 0.316 µM
[10] = second compound 0.316 µM, first compound 1 µM
[11] = second compound 0.316 µM, first compound 3.16 µM
[12] = second compound 0.316 µM, first compound 10 µM
[13] = second compound 1 µM, first compound 0.0316 µM
[14] = second compound 1 µM, first compound 0.1 µM
[15] = second compound 1 µM, first compound 0.316 µM
[16] = second compound 1 µM, first compound 1 µM
[17] = second compound 1 µM, first compound 3.16 µM
[18] = second compound 1 µM, first compound 10 µM
[19] = second compound 3.16 µM, first compound 0.0316 µM
[20] = second compound 3.16 µM, first compound 0.1 µM
[21] = second compound 3.16 µM, first compound 0.316 µM
[22] = second compound 3.16 µM, first compound 1 µM
[23] = second compound 3.16 µM, first compound 3.16 µM
[24] = second compound 3.16 µM, first compound 10 µM
[25] = second compound 10 µM, first compound 0.0316 µM
[26] = second compound 10 µM, first compound 0.1 µM
[27] = second compound 10 µM, first compound 0.316 µM
[28] = second compound 10 µM, first compound 1 µM
[29] = second compound 10 µM, first compound 3.16 µM
[30] = second compound 10 µM, first compound 10 µM
[31] = second compound 0.1 µM, first compound 0.00316 µM
[32] = second compound 0.1 µM, first compound 0.01 µM
[33] = second compound 0.316 µM, first compound 0.00316 µM
[34] = second compound 0.316 µM, first compound 0.01 µM
[35] = second compound 1 µM, first compound 0.00316 µM
[36] = second compound 1 µM, first compound 0.01 µM
[37] = second compound 3.16 µM, first compound 0.00316 µM
[38] = second compound 3.16 µM, first compound 0.01 µM
[39] = second compound 10 µM, first compound 0.00316 µM
[40] = second compound 10 µM, first compound 0.01 µM

| SMILES | IC50 (second compound 0.1 µM) | IC50 (second compound 0.316 µM) | IC50 (second compound 1 µM) | IC50 (second compound 3.16 µM) | IC50 (second compound 10 µM) | viability, T/C [1] | viability, T/C [2] | viability, T/C [3] | viability, T/C [4] | viability, T/C [7] | viability, T/C [8] | viability, T/C [9] | viability, T/C [10] | viability, T/C [13] | viability, T/C [14] | viability, T/C [15] | viability, T/C [19] | viability, T/C [20] | viability, T/C [25] | viability, T/C [26] | further results |
| --- | --- | --- | --- | --- | --- | --- | --- | --- | --- | --- | --- | --- | --- | --- | --- | --- | --- | --- | --- | --- | --- |
| CC(C)c1c(-c2ccccc2)nc2c(C#N)c[nH]n2c1=O + CC(CO)NC(=O)c1cc(-c2ccc(Cl)cc2)nn(-c2cnn(C)c2)c1=O | > 10000 nM | > 10000 nM | > 10000 nM | > 10000 nM | > 10000 nM | 85.4% | 89.8% | 78.7% | 82.6% | 86.8% | 95.6% | 93% | 100% | 96.1% | 91.2% | 95.6% | 84.5% | 99.2% | 86.2% | 74.4% | viability, T/C [5]: 101%; viability, T/C [6]: 88.4%; viability, T/C [11]: 86.5%; viability, T/C [12]: 73%; viability, T/C [16]: 94.5%; viability, T/C [17]: 76.2%; viability, T/C [18]: 69.5%; viability, T/C [21]: 106%; viability, T/C [22]: 81.8%; viability, T/C [23]: 64.5%; viability, T/C [24]: 79.1%; viability, T/C [27]: 74.2%; viability, T/C [28]: 71.6%; viability, T/C [29]: 70.9%; viability, T/C [30]: 59.8% |
| COc1ccc([C@@H](O)c2cc(-c3ncnc4cc(N5CCOCC5)ccc34)c(F)cc2Cl)nn1 + CC(CO)NC(=O)c1cc(-c2ccc(Cl)cc2)nn(-c2cnn(C)c2)c1=O | 1470 nM | 1140 nM | 1060 nM | 1220 nM | 691 nM | 101% | 89.7% | 82.5% | 61% | 88% | 93.7% | 72.7% | 48.8% | 89.7% | 83.8% | 76.6% | 79.6% | 84.8% | 90.2% | 75.8% | viability, T/C [5]: 29.6%; viability, T/C [6]: 8.94%; viability, T/C [11]: 32.7%; viability, T/C [12]: 8.73%; viability, T/C [16]: 48.2%; viability, T/C [17]: 28.2%; viability, T/C [18]: 8.67%; viability, T/C [21]: 85.9%; viability, T/C [22]: 52.7%; viability, T/C [23]: 24%; viability, T/C [24]: 7.24%; viability, T/C [27]: 68.2%; viability, T/C [28]: 41.5%; viability, T/C [29]: 22.1%; viability, T/C [30]: 7.39% |
| CC[C@@]1(O)C(=O)OCc2c1cc1n(c2=O)Cc2cc3c(CN(C)C)c(O)ccc3nc2-1 + Cc1ccccc1N=Nc1ccc(NC(=O)c2ccnn2C)c(C)c1 | 59.1 nM | > 100 nM | 67.1 nM | > 100 nM | 35.2 nM | 51.8% | 47.5% | – | – | 49.9% | 52.9% | – | – | 57.2% | 45.8% | – | 45.2% | 52.9% | 49.6% | 48.6% | viability, T/C (second compound 0.1 µM, first compound 0.000316 µM): 103%; viability, T/C (second compound 0.1 µM, first compound 0.001 µM): 99.8%; viability, T/C [31]: 91.1%; viability, T/C [32]: 80.2%; viability, T/C (second compound 0.316 µM, first compound 0.000316 µM): 99.5%; viability, T/C (second compound 0.316 µM, first compound 0.001 µM): 83.4%; viability, T/C [33]: 97.7%; viability, T/C [34]: 74.6%; viability, T/C (second compound 1 µM, first compound 0.000316 µM): 97.4%; viability, T/C (second compound 1 µM, first compound 0.001 µM): 83.5%; viability, T/C [35]: 82.3%; viability, T/C [36]: 70.2%; viability, T/C (second compound 3.16 µM, first compound 0.000316 µM): 76.6%; viability, T/C (second compound 3.16 µM, first compound 0.001 µM): 94.7%; viability, T/C [37]: 65.5%; viability, T/C [38]: 64.2%; viability, T/C (second compound 10 µM, first compound 0.000316 µM): 46.4%; viability, T/C (second compound 10 µM, first compound 0.001 µM): 58%; viability, T/C [39]: 51.6%; viability, T/C [40]: 49.8% |
| COc1cc(C2c3cc4c(cc3C(OC3OC5COC(C)OC5C(O)C3O)C3COC(=O)C23)OCO4)cc(OC)c1O (stereo not given) + Cc1ccccc1N=Nc1ccc(NC(=O)c2ccnn2C)c(C)c1 | 834 nM | 10000 nM | 725 nM | 255 nM | < 31.6 nM | 92.2% | 82.4% | 56% | 46% | 71.3% | 79% | 57.1% | 50.4% | 90.1% | 88.5% | 58.2% | 66.6% | 68.4% | 45.2% | 46.6% | viability, T/C [5]: 46.3%; viability, T/C [6]: 53.4%; viability, T/C [11]: 54.6%; viability, T/C [12]: 48.9%; viability, T/C [16]: 50.2%; viability, T/C [17]: 44.7%; viability, T/C [18]: 44.5%; viability, T/C [21]: 43.3%; viability, T/C [22]: 43.5%; viability, T/C [23]: 46.9%; viability, T/C [24]: 50.2%; viability, T/C [27]: 57.1%; viability, T/C [28]: 44.6%; viability, T/C [29]: 40.1%; viability, T/C [30]: 49.9% |
| COc1cccc2c1C(=O)c1c(O)c3c(c(O)c1C2=O)CC(O)(C(=O)CO)CC3OC1CC(N)C(O)C(C)O1 (stereo not given) + Cc1ccccc1N=Nc1ccc(NC(=O)c2ccnn2C)c(C)c1 | 92.8 nM | < 31.6 nM | 166 nM | < 31.6 nM | < 31.6 nM | 59.7% | 44.6% | 37.9% | 18.2% | 50% | 48.6% | 38.2% | 24.2% | 58.8% | 51.5% | 44.6% | 50.1% | 48.2% | 40.9% | 41.2% | viability, T/C [5]: 1.96%; viability, T/C [6]: 4.55%; viability, T/C [11]: 2.31%; viability, T/C [12]: 4.21%; viability, T/C [16]: 16.5%; viability, T/C [17]: 2.36%; viability, T/C [18]: 4.45%; viability, T/C [21]: 41.1%; viability, T/C [22]: 16.2%; viability, T/C [23]: 3.35%; viability, T/C [24]: 5.99%; viability, T/C [27]: 35.9%; viability, T/C [28]: 14.4%; viability, T/C [29]: 5.03%; viability, T/C [30]: 4.31% |
| Nc1ncn(C2CC(O)C(CO)O2)c(=O)n1 (stereo not given) + Cc1ccccc1N=Nc1ccc(NC(=O)c2ccnn2C)c(C)c1 | > 1000 nM | > 1000 nM | > 1000 nM | 763 nM | 135 nM | 84.1% | 63.7% | 59.6% | 51% | 100% | 79.2% | 53.8% | 51% | 81% | 60.2% | 63% | 68.5% | 61.8% | 61.8% | 49.9% | viability, T/C [31]: 102%; viability, T/C [32]: 103%; viability, T/C [33]: 102%; viability, T/C [34]: 101%; viability, T/C [35]: 100%; viability, T/C [36]: 97%; viability, T/C [16]: 54.5%; viability, T/C [37]: 81.4%; viability, T/C [38]: 77%; viability, T/C [21]: 53.1%; viability, T/C [22]: 49.7%; viability, T/C [39]: 70.6%; viability, T/C [40]: 54.9%; viability, T/C [27]: 47.8%; viability, T/C [28]: 42.1% |
